≈ marks a conversion by molar mass, not a printed value. Read-outs that look alike come from different tables or passages of the source.
Legend:
[1] = tested on: Bacillus cereus ATCC 11778; assay: Antimicrobial activity, serial dilution method on agar plate; type: cell-based; conditions: ATCC11778, read-out: Minimum Inhibitory Concentration (MIC)
Esherichia coli NIHJ = assay: as above; type: cell-based; conditions: read-out: Minimum Inhibitory Concentration (MIC)
[2] = tested on: Klebsiella pneumoniae ST-101; assay: as above; type: cell-based; conditions: ST101, read-out: Minimum Inhibitory Concentration (MIC)
[3] = tested on: Pseudomonas aeruginosa ATCC 10145; assay: as above; type: cell-based; conditions: ATCC10145, read-out: Minimum Inhibitory Concentration (MIC)
[4] = tested on: Salmonella typhimurium kh; assay: as above; type: cell-based; conditions: Salmonella enterica, read-out: Minimum Inhibitory Concentration (MIC)
[5] = tested on: Micrococcus flavus ATCC 10240a; assay: as above; type: cell-based; conditions: ATCC10240A, read-out: Minimum Inhibitory Concentration (MIC)
[6] = tested on: Serratia marcescens ATCC 14756; assay: as above; type: cell-based; conditions: ATCC14756, read-out: Minimum Inhibitory Concentration (MIC)
Sarcina lutea ATCC 9341 = assay: as above; type: cell-based; conditions: Micrococcus luteus, ATCC9341, read-out: Minimum Inhibitory Concentration (MIC)
[7] = tested on: Streptococcus faecalis IFO 12580; assay: as above; type: cell-based; conditions: Enterococcus faecalis, IFO12580, read-out: Minimum Inhibitory Concentration (MIC)
[8] = tested on: Staphyrococcus aureus FDA 209p; assay: as above; type: cell-based; conditions: read-out: Minimum Inhibitory Concentration (MIC)
Bacillus anthracis = assay: microbe, parasite or virus in culture; type: cell-based; conditions: read-out: Minimum Inhibitory Concentration (MIC)
[9] = tested on: Bacillus subtilis ATCC 6633; assay: Antimicrobial activity, serial dilution method on agar plate; type: cell-based; conditions: ATCC6633, read-out: Minimum Inhibitory Concentration (MIC)
Candida albicans KYU = assay: as above; type: cell-based; conditions: read-out: Minimum Inhibitory Concentration (MIC)
[10] = tested on: Esherichia coli NIHJ JC-2; assay: as above; type: cell-based; conditions: read-out: Minimum Inhibitory Concentration (MIC)
[11] = tested on: Staphyrococcus aureus Newmann; assay: as above; type: cell-based; conditions: read-out: Minimum Inhibitory Concentration (MIC)
Acute toxicity = conditions: rat, in vivo, rats, dd strain, 18 to 22 g, fasted 12 hours
Protocol: Further, the acute toxicity of the compounds of the present invention having the formula (I) was determined by intravenous administration (i.v.) and oral administration (p.o.) in 5 to 6 groups of rats (dd strain; body weight, 18 to 22 g; 10 rats in each group) which had been fasted for 12 hours prior to the test.

Proteus mirabilis 1287 = assay: Antimicrobial activity, serial dilution method on agar plate; type: cell-based; conditions: read-out: Minimum Inhibitory Concentration (MIC)
[12] = tested on: Enterbactor aerogenes IFO 12979; assay: as above; type: cell-based; conditions: read-out: Minimum Inhibitory Concentration (MIC)
Streptomyces viridans = assay: as above; type: cell-based; conditions: read-out: Minimum Inhibitory Concentration (MIC)
Enterbactor cloacae 2 = assay: as above; type: cell-based; conditions: read-out: Minimum Inhibitory Concentration (MIC)
[13] = iv, read-out: LD50 (50% lethal dose), i.v.
[14] = po, read-out: LD50 (50% lethal dose), p.o.

O=C(O)c1cn2c3c(cc(F)cc3c1=O)C1CCCCC12 (stereo not shown) [Compound 1, 2-fluoro-7a,8,9,10,11,11a-hexahydro-4-oxo-4H-pyrido[3,2,1-jk]carbazol-5-carboxylic acid]
MIC [1]: 25 µg/mL (≈ 87 µM) | MIC (Esherichia coli NIHJ): 6.3 µg/mL (≈ 21.9 µM) | MIC [2]: 3.2 µg/mL (≈ 11.1 µM) | MIC [3]: > 100 µg/mL | MIC [4]: 6.3 µg/mL (≈ 21.9 µM) | MIC [5]: 50 µg/mL (≈ 174 µM) | MIC [6]: 3.2 µg/mL (≈ 11.1 µM) | MIC (Sarcina lutea ATCC 9341): 50 µg/mL (≈ 174 µM) | MIC [7]: 100 µg/mL (≈ 348 µM) | MIC [8]: 6.3 µg/mL (≈ 21.9 µM) | MIC (Bacillus anthracis): 3.2 µg/mL (≈ 11.1 µM) | MIC [9]: 1.6 µg/mL (≈ 5.57 µM) | MIC (Candida albicans KYU): > 500 µg/mL | MIC [10]: 6.3 µg/mL (≈ 21.9 µM) | MIC [11]: 6.3 µg/mL (≈ 21.9 µM) | LD50 (Acute toxicity; [13]): 130 mg/kg | LD50 (Acute toxicity; [14]): 5000 mg/kg | MIC (Proteus mirabilis 1287): 12.5 µg/mL (≈ 43.5 µM) | MIC [12]: 3.2 µg/mL (≈ 11.1 µM) | MIC (Streptomyces viridans): 100 µg/mL (≈ 348 µM) | MIC (Enterbactor cloacae 2): 3.2 µg/mL (≈ 11.1 µM)

O=C(O)c1cn2c3c(cccc3c1=O)C1CCCCC12 (stereo not shown) [Compound 2, 7a,8,9,10,11,11a-Hexahydro-4-oxo-4H-pyrido[3,2,1-jk]carbazol-5-carboxylic acid]
MIC [1]: 100 µg/mL (≈ 371 µM) | MIC (Esherichia coli NIHJ): 25 µg/mL (≈ 92.8 µM) | MIC [2]: 12.5 µg/mL (≈ 46.4 µM) | MIC [3]: > 100 µg/mL | MIC [4]: 25 µg/mL (≈ 92.8 µM) | MIC [5]: 100 µg/mL (≈ 371 µM) | MIC [6]: 12.5 µg/mL (≈ 46.4 µM) | MIC (Sarcina lutea ATCC 9341): 100 µg/mL (≈ 371 µM) | MIC [7]: > 100 µg/mL | MIC [8]: 25 µg/mL (≈ 92.8 µM) | MIC (Bacillus anthracis): 25 µg/mL (≈ 92.8 µM) | MIC [9]: 12.5 µg/mL (≈ 46.4 µM) | MIC (Candida albicans KYU): > 500 µg/mL | MIC [10]: 25 µg/mL (≈ 92.8 µM) | MIC [11]: 25 µg/mL (≈ 92.8 µM) | LD50 (Acute toxicity; [13]): 120 mg/kg | LD50 (Acute toxicity; [14]): 5000 mg/kg | MIC (Proteus mirabilis 1287): 50 µg/mL (≈ 186 µM) | MIC [12]: 12.5 µg/mL (≈ 46.4 µM) | MIC (Streptomyces viridans): > 100 µg/mL | MIC (Enterbactor cloacae 2): 12.5 µg/mL (≈ 46.4 µM)

CCOC(=O)c1cn2c3c(cc(F)cc3c1=O)C1CCCCC12 (stereo not shown) [Compound 3, ethyl 2-fluoro-7a,8,9,10,11,11a-hexahydro-4-oxo-4H-pyrido-[3,2,1-jk]carbazol-5-carboxylate]
MIC [1]: 100 µg/mL (≈ 317 µM) | MIC (Esherichia coli NIHJ): 25 µg/mL (≈ 79.3 µM) | MIC [2]: 12.5 µg/mL (≈ 39.6 µM) | MIC [3]: > 100 µg/mL | MIC [4]: 25 µg/mL (≈ 79.3 µM) | MIC [5]: 100 µg/mL (≈ 317 µM) | MIC [6]: 25 µg/mL (≈ 79.3 µM) | MIC (Sarcina lutea ATCC 9341): 100 µg/mL (≈ 317 µM) | MIC [7]: > 100 µg/mL | MIC [8]: 25 µg/mL (≈ 79.3 µM) | MIC (Bacillus anthracis): 50 µg/mL (≈ 159 µM) | MIC [9]: 6.3 µg/mL (≈ 20 µM) | MIC (Candida albicans KYU): > 500 µg/mL | MIC [10]: 12.5 µg/mL (≈ 39.6 µM) | MIC [11]: 25 µg/mL (≈ 79.3 µM) | LD50 (Acute toxicity; [13]): 80 mg/kg | LD50 (Acute toxicity; [14]): 3000 mg/kg | MIC (Proteus mirabilis 1287): 25 µg/mL (≈ 79.3 µM) | MIC [12]: 25 µg/mL (≈ 79.3 µM) | MIC (Streptomyces viridans): > 100 µg/mL | MIC (Enterbactor cloacae 2): 12.5 µg/mL (≈ 39.6 µM)

COc1cc2c3c(c1)c(=O)c(C(=O)O)cn3C1CCCCC21 (stereo not shown) [Compound 4, 2-Methoxy-7a,8,9,10,11,11a-hexahydro-4-oxo-4H-pyrido[3,2,1-jk]carbazol-5-carboxylic acid]
MIC [1]: 12.5 µg/mL (≈ 41.8 µM) | MIC (Esherichia coli NIHJ): 12.5 µg/mL (≈ 41.8 µM) | MIC [2]: 6.3 µg/mL (≈ 21 µM) | MIC [3]: > 100 µg/mL | MIC [4]: 12.5 µg/mL (≈ 41.8 µM) | MIC [5]: 100 µg/mL (≈ 334 µM) | MIC [6]: 12.5 µg/mL (≈ 41.8 µM) | MIC (Sarcina lutea ATCC 9341): 100 µg/mL (≈ 334 µM) | MIC [7]: 100 µg/mL (≈ 334 µM) | MIC [8]: 12.5 µg/mL (≈ 41.8 µM) | MIC (Bacillus anthracis): 6.3 µg/mL (≈ 21 µM) | MIC [9]: 3.2 µg/mL (≈ 10.7 µM) | MIC (Candida albicans KYU): > 500 µg/mL | MIC [10]: 12.5 µg/mL (≈ 41.8 µM) | MIC [11]: 12.5 µg/mL (≈ 41.8 µM) | LD50 (Acute toxicity; [13]): 130 mg/kg | LD50 (Acute toxicity; [14]): 4000 mg/kg | MIC (Proteus mirabilis 1287): 25 µg/mL (≈ 83.5 µM) | MIC [12]: 6.3 µg/mL (≈ 21 µM) | MIC (Streptomyces viridans): 100 µg/mL (≈ 334 µM) | MIC (Enterbactor cloacae 2): 6.3 µg/mL (≈ 21 µM)

Cc1cc(C)c2c(=O)c(C(=O)O)cn3c2c1C1CCCCC13 (stereo not shown) [Compound 5, 1,3-Dimethyl-7a,8,9,10,11,11a-hexahydro-4-oxo-4H-pyrido[3,2,1-jk]carbazol-5-carboxylic acid]
MIC [1]: 25 µg/mL (≈ 84.1 µM) | MIC (Esherichia coli NIHJ): 12.5 µg/mL (≈ 42 µM) | MIC [2]: 12.5 µg/mL (≈ 42 µM) | MIC [3]: > 100 µg/mL | MIC [4]: 12.5 µg/mL (≈ 42 µM) | MIC [5]: 100 µg/mL (≈ 336 µM) | MIC [6]: 6.3 µg/mL (≈ 21.2 µM) | MIC (Sarcina lutea ATCC 9341): 100 µg/mL (≈ 336 µM) | MIC [7]: > 100 µg/mL | MIC [8]: 6.3 µg/mL (≈ 21.2 µM) | MIC (Bacillus anthracis): 6.3 µg/mL (≈ 21.2 µM) | MIC [9]: 6.3 µg/mL (≈ 21.2 µM) | MIC (Candida albicans KYU): > 500 µg/mL | MIC [10]: 12.5 µg/mL (≈ 42 µM) | MIC [11]: 6.3 µg/mL (≈ 21.2 µM) | LD50 (Acute toxicity; [13]): 120 mg/kg | LD50 (Acute toxicity; [14]): 3000 mg/kg | MIC (Proteus mirabilis 1287): 12.5 µg/mL (≈ 42 µM) | MIC [12]: 12.5 µg/mL (≈ 42 µM) | MIC (Streptomyces viridans): > 100 µg/mL | MIC (Enterbactor cloacae 2): 6.3 µg/mL (≈ 21.2 µM)

O=C(O)c1cn2c3c(ccc([N+](=O)[O-])c3c1=O)C1CCCCC12 (stereo not shown) [Compound 6, 3-nitro-7a,8,9,10,11,11a-hexahydro-4-oxo-4H-pyrido[3,2,1-jk]carbazol-5-carboxylic acid]
MIC [1]: 12.5 µg/mL (≈ 39.8 µM) | MIC (Esherichia coli NIHJ): 6.3 µg/mL (≈ 20 µM) | MIC [2]: 6.3 µg/mL (≈ 20 µM) | MIC [3]: > 100 µg/mL | MIC [4]: 12.5 µg/mL (≈ 39.8 µM) | MIC [5]: 50 µg/mL (≈ 159 µM) | MIC [6]: 6.3 µg/mL (≈ 20 µM) | MIC (Sarcina lutea ATCC 9341): 50 µg/mL (≈ 159 µM) | MIC [7]: > 100 µg/mL | MIC [8]: 12.5 µg/mL (≈ 39.8 µM) | MIC (Bacillus anthracis): 12.5 µg/mL (≈ 39.8 µM) | MIC [9]: 3.2 µg/mL (≈ 10.2 µM) | MIC (Candida albicans KYU): > 500 µg/mL | MIC [10]: 12.5 µg/mL (≈ 39.8 µM) | MIC [11]: 12.5 µg/mL (≈ 39.8 µM) | LD50 (Acute toxicity; [13]): 110 mg/kg | LD50 (Acute toxicity; [14]): 4000 mg/kg | MIC (Proteus mirabilis 1287): 12.5 µg/mL (≈ 39.8 µM) | MIC [12]: 6.3 µg/mL (≈ 20 µM) | MIC (Streptomyces viridans): > 100 µg/mL | MIC (Enterbactor cloacae 2): 6.3 µg/mL (≈ 20 µM)

CCn1cc(C(=O)O)c(=O)c2ccc(C)nc21 [Compound 13, 1-ethyl-1,4-dihydro-7-methyl-4-one-1,8-naphthyridine-3-carboxylic acid, reference compound]
MIC [1]: 50 µg/mL (≈ 215 µM) | MIC (Esherichia coli NIHJ): 12.5 µg/mL (≈ 53.8 µM) | MIC [2]: 12.5 µg/mL (≈ 53.8 µM) | MIC [3]: > 100 µg/mL | MIC [4]: 6.3 µg/mL (≈ 27.1 µM) | MIC [5]: > 100 µg/mL | MIC [6]: 3.2 µg/mL (≈ 13.8 µM) | MIC (Sarcina lutea ATCC 9341): > 100 µg/mL | MIC [7]: > 100 µg/mL | MIC [8]: 50 µg/mL (≈ 215 µM) | MIC (Bacillus anthracis): 12.5 µg/mL (≈ 53.8 µM) | MIC [9]: 6.3 µg/mL (≈ 27.1 µM) | MIC (Candida albicans KYU): > 500 µg/mL | MIC [10]: 6.3 µg/mL (≈ 27.1 µM) | MIC [11]: 50 µg/mL (≈ 215 µM) | MIC (Proteus mirabilis 1287): 25 µg/mL (≈ 108 µM) | MIC [12]: 6.3 µg/mL (≈ 27.1 µM) | MIC (Streptomyces viridans): > 100 µg/mL | MIC (Enterbactor cloacae 2): 12.5 µg/mL (≈ 53.8 µM)

Source: patent publication US4293694A, “Pyrido[3,2,1-jk]carbazols” (Otsuka Pharmaceutical Co., Ltd., priority 1979, dated 1981)
